Laboratory results as given in PubChem BioAssay AID2060901 (Molecular Pharmacology Branch, DTP, NCI, 2025).

Tested on: 422866-222-R5-J1-PDC complex spheroids viability
Test: Anticancer human tumor 422866-222-R5-J1-PDC patient-derived pancreatic adenocarcinoma cell line growth inhibition [RAS]
Details: for IC50: curve of first compound; for viability, T/C: stronger effect = lower value
Procedure, shortened: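 Multi-cell-type spheroids: tumor cells plus HUVEC endothelial cells and mesenchymal stem cells. RAS-pathway inhibitors were combined with targeted agents, each dosed in half-log steps down from clinical Cmax, or from 10 microM when Cmax was unknown.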

[1] = second compound 0.000949 µM, first compound 0.0316 µM
[2] = second compound 0.000949 µM, first compound 0.1 µM
[3] = second compound 0.000949 µM, first compound 0.316 µM
[4] = second compound 0.000949 µM, first compound 1 µM
[5] = second compound 0.000949 µM, first compound 3.16 µM
[6] = second compound 0.000949 µM, first compound 10 µM
[7] = second compound 0.003 µM, first compound 0.0316 µM
[8] = second compound 0.003 µM, first compound 0.1 µM
[9] = second compound 0.003 µM, first compound 0.316 µM
[10] = second compound 0.003 µM, first compound 1 µM
[11] = second compound 0.003 µM, first compound 3.16 µM
[12] = second compound 0.003 µM, first compound 10 µM
[13] = second compound 0.00949 µM, first compound 0.0316 µM
[14] = second compound 0.00949 µM, first compound 0.1 µM
[15] = second compound 0.00949 µM, first compound 0.316 µM
[16] = second compound 0.00949 µM, first compound 1 µM
[17] = second compound 0.00949 µM, first compound 3.16 µM
[18] = second compound 0.00949 µM, first compound 10 µM
[19] = second compound 0.03 µM, first compound 0.0316 µM
[20] = second compound 0.03 µM, first compound 0.1 µM
[21] = second compound 0.03 µM, first compound 0.316 µM
[22] = second compound 0.03 µM, first compound 1 µM
[23] = second compound 0.03 µM, first compound 3.16 µM
[24] = second compound 0.03 µM, first compound 10 µM
[25] = second compound 0.0949 µM, first compound 0.0316 µM
[26] = second compound 0.0949 µM, first compound 0.1 µM
[27] = second compound 0.0949 µM, first compound 0.316 µM
[28] = second compound 0.0949 µM, first compound 1 µM
[29] = second compound 0.0949 µM, first compound 3.16 µM
[30] = second compound 0.0949 µM, first compound 10 µM
[31] = second compound 0.3 µM, first compound 0.0316 µM
[32] = second compound 0.3 µM, first compound 0.1 µM
[33] = second compound 0.3 µM, first compound 0.316 µM
[34] = second compound 0.3 µM, first compound 1 µM
[35] = second compound 0.3 µM, first compound 3.16 µM
[36] = second compound 0.3 µM, first compound 10 µM
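Further: spheroids exposed to compounds for 7 days.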
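Wherever viability, T/C is given: 100% = DMSO vehicle control viability.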

CC(=O)OC12COC1CC(O)C1(C)C(=O)C(O)C3=C(C)C(OC(=O)C(O)C(NC(=O)OC(C)(C)C)c4ccccc4)CC(O)(C(OC(=O)c4ccccc4)C21)C3(C)C (stereo not given) + CCn1c(-c2cc(N3CCN(C)CC3)cnc2C(C)OC)c2c3cc(ccc31)-c1csc(n1)CC(NC(=O)C1CC1C)C(=O)N1CCCC(N1)C(=O)OCC(C)(C)C2
IC50 (second compound 0.000949 µM): < 31.6 nM
IC50 (second compound 0.003 µM): < 31.6 nM
IC50 (second compound 0.00949 µM): < 31.6 nM
IC50 (second compound 0.03 µM): < 31.6 nM
IC50 (second compound 0.0949 µM): < 31.6 nM
IC50 (second compound 0.3 µM): < 31.6 nM
viability, T/C [1]: 23.3%
viability, T/C [2]: 25.6%
viability, T/C [3]: 26.9%
viability, T/C [4]: 31.8%
viability, T/C [5]: 29.4%
viability, T/C [6]: 23.2%
viability, T/C [7]: 18.8%
viability, T/C [8]: 19.6%
viability, T/C [9]: 18.6%
viability, T/C [10]: 20.6%
viability, T/C [11]: 21.5%
viability, T/C [12]: 20.5%
viability, T/C [13]: 14.5%
viability, T/C [14]: 15.8%
viability, T/C [15]: 16.4%
viability, T/C [16]: 17.7%
viability, T/C [17]: 17.3%
viability, T/C [18]: 18.3%
viability, T/C [19]: 16.3%
viability, T/C [20]: 18.6%
viability, T/C [21]: 16.1%
viability, T/C [22]: 17%
viability, T/C [23]: 16.9%
viability, T/C [24]: 19.4%
viability, T/C [25]: 17.9%
viability, T/C [26]: 16.5%
viability, T/C [27]: 18.7%
viability, T/C [28]: 17.8%
viability, T/C [29]: 17%
viability, T/C [30]: 22.1%
viability, T/C [31]: 16.7%
viability, T/C [32]: 17.1%
viability, T/C [33]: 18.4%
viability, T/C [34]: 17.8%
viability, T/C [35]: 19.9%
viability, T/C [36]: 21.5%

CCC(CC)c1cc(NC2CCC(N)C2)n2nccc2n1 (stereo not given) + CCn1c(-c2cc(N3CCN(C)CC3)cnc2C(C)OC)c2c3cc(ccc31)-c1csc(n1)CC(NC(=O)C1CC1C)C(=O)N1CCCC(N1)C(=O)OCC(C)(C)C2
IC50 (second compound 0.000949 µM): < 31.6 nM
IC50 (second compound 0.003 µM): < 31.6 nM
IC50 (second compound 0.00949 µM): < 31.6 nM
IC50 (second compound 0.03 µM): < 31.6 nM
IC50 (second compound 0.0949 µM): < 31.6 nM
IC50 (second compound 0.3 µM): < 31.6 nM
viability, T/C [1]: 36.1%
viability, T/C [2]: 34.6%
viability, T/C [3]: 36.9%
viability, T/C [4]: 38.4%
viability, T/C [5]: 15.5%
viability, T/C [6]: 51.6%
viability, T/C [7]: 22.1%
viability, T/C [8]: 24.1%
viability, T/C [9]: 24.7%
viability, T/C [10]: 27.2%
viability, T/C [11]: 15.2%
viability, T/C [12]: 50.2%
viability, T/C [13]: 23.4%
viability, T/C [14]: 24.7%
viability, T/C [15]: 23.6%
viability, T/C [16]: 25.8%
viability, T/C [17]: 17.8%
viability, T/C [18]: 46.1%
viability, T/C [19]: 20.7%
viability, T/C [20]: 20.4%
viability, T/C [21]: 24.9%
viability, T/C [22]: 27.7%
viability, T/C [23]: 17.4%
viability, T/C [24]: 57.6%
viability, T/C [25]: 21.6%
viability, T/C [26]: 22.1%
viability, T/C [27]: 26.9%
viability, T/C [28]: 32.8%
viability, T/C [29]: 18.4%
viability, T/C [30]: 49.6%
viability, T/C [31]: 22.4%
viability, T/C [32]: 22.3%
viability, T/C [33]: 25.7%
viability, T/C [34]: 32.3%
viability, T/C [35]: 22.3%
viability, T/C [36]: 51.4%

Cc1nc(N2CCC3(CC2)COC(C)C3N)c(CO)nc1Sc1ccnc(N)c1Cl (stereo not given) + CCn1c(-c2cc(N3CCN(C)CC3)cnc2C(C)OC)c2c3cc(ccc31)-c1csc(n1)CC(NC(=O)C1CC1C)C(=O)N1CCCC(N1)C(=O)OCC(C)(C)C2
IC50 (second compound 0.000949 µM): < 31.6 nM
IC50 (second compound 0.003 µM): < 31.6 nM
IC50 (second compound 0.00949 µM): < 31.6 nM
IC50 (second compound 0.03 µM): < 31.6 nM
IC50 (second compound 0.0949 µM): < 31.6 nM
IC50 (second compound 0.3 µM): < 31.6 nM
viability, T/C [1]: 29.3%
viability, T/C [2]: 23.1%
viability, T/C [3]: 21.6%
viability, T/C [4]: 17.4%
viability, T/C [5]: 18.1%
viability, T/C [6]: 20.2%
viability, T/C [7]: 23.6%
viability, T/C [8]: 18.5%
viability, T/C [9]: 16.3%
viability, T/C [10]: 16.7%
viability, T/C [11]: 18.1%
viability, T/C [12]: 21.2%
viability, T/C [13]: 19.2%
viability, T/C [14]: 16.1%
viability, T/C [15]: 19.1%
viability, T/C [16]: 15.8%
viability, T/C [17]: 20.8%
viability, T/C [18]: 22.1%
viability, T/C [19]: 17.4%
viability, T/C [20]: 16.3%
viability, T/C [21]: 18.6%
viability, T/C [22]: 17.5%
viability, T/C [23]: 20.3%
viability, T/C [24]: 20.4%
viability, T/C [25]: 21%
viability, T/C [26]: 20.6%
viability, T/C [27]: 20%
viability, T/C [28]: 17.8%
viability, T/C [29]: 21.7%
viability, T/C [30]: 22.3%
viability, T/C [31]: 20.1%
viability, T/C [32]: 20.2%
viability, T/C [33]: 21.2%
viability, T/C [34]: 18.1%
viability, T/C [35]: 22.7%
viability, T/C [36]: 24.4%

NC1c2ccccc2OC12CCN(c1cnc3c(N4CCCc5ncccc54)n[nH]c3n1)CC2 (stereo not given) + CCn1c(-c2cc(N3CCN(C)CC3)cnc2C(C)OC)c2c3cc(ccc31)-c1csc(n1)CC(NC(=O)C1CC1C)C(=O)N1CCCC(N1)C(=O)OCC(C)(C)C2
IC50 (second compound 0.000949 µM): < 31.6 nM
IC50 (second compound 0.003 µM): < 31.6 nM
IC50 (second compound 0.00949 µM): < 31.6 nM
IC50 (second compound 0.03 µM): < 31.6 nM
IC50 (second compound 0.0949 µM): < 31.6 nM
IC50 (second compound 0.3 µM): < 31.6 nM
viability, T/C [1]: 20.1%
viability, T/C [2]: 18.4%
viability, T/C [3]: 14.1%
viability, T/C [4]: 16.4%
viability, T/C [5]: 18.4%
viability, T/C [6]: 18.5%
viability, T/C [7]: 19.2%
viability, T/C [8]: 15.6%
viability, T/C [9]: 14.8%
viability, T/C [10]: 16.3%
viability, T/C [11]: 17.4%
viability, T/C [12]: 19.8%
viability, T/C [13]: 16.1%
viability, T/C [14]: 15.2%
viability, T/C [15]: 14.6%
viability, T/C [16]: 14.7%
viability, T/C [17]: 18.5%
viability, T/C [18]: 16.5%
viability, T/C [19]: 17.2%
viability, T/C [20]: 16.4%
viability, T/C [21]: 16.7%
viability, T/C [22]: 16.8%
viability, T/C [23]: 18.2%
viability, T/C [24]: 17.9%
viability, T/C [25]: 17.5%
viability, T/C [26]: 18.4%
viability, T/C [27]: 16.9%
viability, T/C [28]: 19.2%
viability, T/C [29]: 18.5%
viability, T/C [30]: 18.9%
viability, T/C [31]: 18.6%
viability, T/C [32]: 19%
viability, T/C [33]: 20.5%
viability, T/C [34]: 19.2%
viability, T/C [35]: 19.8%
viability, T/C [36]: 22.7%

Nc1ccn(C2OC(CO)C(O)C2(F)F)c(=O)n1 (stereo not given) + CCn1c(-c2cc(N3CCN(C)CC3)cnc2C(C)OC)c2c3cc(ccc31)-c1csc(n1)CC(NC(=O)C1CC1C)C(=O)N1CCCC(N1)C(=O)OCC(C)(C)C2
IC50 (second compound 0.000949 µM): < 3.16 nM
IC50 (second compound 0.003 µM): < 3.16 nM
IC50 (second compound 0.00949 µM): < 3.16 nM
IC50 (second compound 0.03 µM): < 3.16 nM
IC50 (second compound 0.0949 µM): < 3.16 nM
IC50 (second compound 0.3 µM): < 3.16 nM
viability, T/C (second compound 0.000949 µM, first compound 0.00316 µM): 30.8%
viability, T/C (second compound 0.000949 µM, first compound 0.01 µM): 27.9%
viability, T/C [1]: 25.3%
viability, T/C [2]: 24.1%
viability, T/C [3]: 22.2%
viability, T/C [4]: 19.4%
viability, T/C (second compound 0.003 µM, first compound 0.00316 µM): 25.6%
viability, T/C (second compound 0.003 µM, first compound 0.01 µM): 23.5%
viability, T/C [7]: 20.5%
viability, T/C [8]: 16.5%
viability, T/C [9]: 18.6%
viability, T/C [10]: 17.4%
viability, T/C (second compound 0.00949 µM, first compound 0.00316 µM): 20.4%
viability, T/C (second compound 0.00949 µM, first compound 0.01 µM): 21.1%
viability, T/C [13]: 20.4%
viability, T/C [14]: 16.3%
viability, T/C [15]: 15.2%
viability, T/C [16]: 15.8%
viability, T/C (second compound 0.03 µM, first compound 0.00316 µM): 18.9%
viability, T/C (second compound 0.03 µM, first compound 0.01 µM): 20.1%
viability, T/C [19]: 17.4%
viability, T/C [20]: 16.1%
viability, T/C [21]: 15.8%
viability, T/C [22]: 14.7%
viability, T/C (second compound 0.0949 µM, first compound 0.00316 µM): 19.3%
viability, T/C (second compound 0.0949 µM, first compound 0.01 µM): 20.8%
viability, T/C [25]: 16.7%
viability, T/C [26]: 15.6%
viability, T/C [27]: 16.6%
viability, T/C [28]: 16.4%
viability, T/C (second compound 0.3 µM, first compound 0.00316 µM): 20%
viability, T/C (second compound 0.3 µM, first compound 0.01 µM): 20.4%
viability, T/C [31]: 18.5%
viability, T/C [32]: 18.7%
viability, T/C [33]: 18.9%
viability, T/C [34]: 15.4%
